Measured values reported in US20120065228A1, “COMPOSITIONS AND METHODS FOR TREATING, CONTROLLING, REDUCING, OR AMELIORATING OCULAR INFLAMMATORY WITH LOWER RISK OF INCREASED INTRAOCULAR PRESSURE” (priority 2007, published 2012).
Several values for one entry are separate records, joined by “and”; a condition that tells them apart may be missing. Equal entries are not always repeated.

Legend:
rabbit eye [1] = experiment: Pupillary diameter measurement, rabbit paracentesis model; assay type: in vivo; settings: 0.1% topical formulation, individual eyes, listed as Dex
Description: (§1) Each rabbit was placed in a restraint device and tagged with the alphanumeric code. The formulations were instilled (50 μl) into the conjunctival sac of both eyes 180, 120, 90 and 30 min before the first paracentesis; then 15, 30, 90 min after the first paracentesis. To perform the first paracentesis the animals were anaesthetized by intravenous injection of 5 mg/kg Zoletil® (Virbac; 2.5 mg/kg tiletamine HCl and 2.5 mg/kg zolazepam HCl) and one drop of local anesthetic (Novesina®, Novartis) was administered to the eye. Anterior chamber paracentesis was performed with a 26 G needle attached to a tuberculin syringe; the needle was introduced into the anterior chamber through the cornea, taking care not to damage the tissues. Two hours after the ® first paracentesis, the animals were sacrificed with 0.4 ml Tanax® (Intervet International B.V.) and the second paracentesis was performed. About 100 μl of aqueous humor were removed at the second paracentesis. Aqueous humor was immediately split in four aliquots and stored at −80° C. until analysis. Then both eyes were enucleated and the iris-ciliary body was carefully excised, placed in polypropylene tubes, and stored at −80° C. until analysis.
The pupillary diameter of both eyes was measured with a Castroviejo caliper 180 min and 5 min before the first paracentesis and 5 min before the second paracentesis.
(§2) Pupillary diameter, PGE2, protein, PMN, and MPO were expressed as mean±SEM. Statistical analysis was performed using one way ANOVA followed by a Newman-Keuls post hoc test. Clinical score was expressed as % of eyes and the statistical analysis was performed using Kruskal-Wallis followed by a Dunn post hoc test. P<0.05 was considered statistically significant in both cases. Prism 4 software (GraphPad Software, Inc.) was used for the analysis and graphs.

rabbit eye [2] = experiment: Clinical evaluation by slit lamp (clinical score), rabbit paracentesis model; assay type: in vivo; parameters: key to Clinical Score −180 min / Clinical Score −5 min / Clinical Score +115 min: 0: normal; 1: discrete dilatation of iris and conjunctival vessels; 2: moderate dilatation of iris and conjunctival vessels; 3: intense iridal hyperemia with flare in the anterior chamber; 4: intense iridal hyperemia with flare in the anterior chamber and presence of fibrinous exudates; settings: 0.1% topical formulation
[3] = system: protein concentration in the aqueous humor; experiment: Protein measurement in aqueous humor, rabbit paracentesis model; assay type: in vivo; settings: 0.1% topical formulation, second paracentesis
Description: as §1
For protein concentration determination in the aqueous humor we used the Protein Quantification Kit (Fluka; Cat. No. 77371; Lot. No. 1303129). Five microliters of aqueous humor were diluted to 100 μl with water. Twenty microliters of samples and of standards were load into a 96-well plate and recorded in a plate layout. Samples were treated following the assay procedure described in the kit. A microplate reader (GDV, Italy; model DV 990 B/V6) set at 670 nm was used for making the calibration and analyzing the samples.
as §2

leukocytes (PMN) = experiment: Leukocytes (PMN) measurement in aqueous humor, rabbit paracentesis model; assay type: in vivo; settings: 0.1% topical formulation, second paracentesis
Description: as §1
For the determination of the number of leukocytes we used a haemocytometer (Improved Neubauer Chamber; Bright-line. Hausser Scientific) and a Polyvar 2 microscope (Reichert-Jung).
as §2

rabbit eyes = experiment: Ophthalmic observations (slit lamp, McDonald Shadduck) in the rabbit IOP study; assay type: in vivo, New Zealand White rabbits; parameters: key to Conjunctival congestion Score: A flushed, reddish color predominantly confined to the palpebral conjunctiva with some perilimbal injection but primarily confined to the lower and upper parts of the eye from the 4:00 to 7:00 and 11:00 to 1:00 positions; settings: for Conjunctival congestion Score / Ophthalmic Observation (Slit-Lamp): 0.1% Dexamethasone 4 x daily, treated right eye; for Conjunctival congestion Score: individual rabbit; for Ophthalmic Observation (Slit-Lamp): individual rabbits
Description: On Days 1-31, animals received daily topical doses of the appropriate test article into the right eye. Animals were dosed four times per day, with doses administered 2 hours apart. Doses were administered using a calibrated 50-μL pipette. The eyelids were held close for 10 seconds immediately following dosing. The time of each dose administration was recorded.
Ophthalmic examinations (slit lamp) were performed prior to the first dosing on Days 5, 12, 22, 26, and 33. Ocular findings were scored according to the McDonald Shadduck system and recorded using a standardized data collection sheet.

Structure (SMILES): C[C@@H]1C[C@H]2[C@@H]3CCC4=CC(=O)C=C[C@]4(C)[C@@]3(F)[C@@H](O)C[C@]2(C)[C@@]1(O)C(=O)CO [dexamethasone, reference compound]
- Pupillary diameter T2: −5 min (rabbit eye [1]; 5 min before the first paracentesis): 5.5 mm and 6.5 mm (3×) and 6.0 mm (2×) and 7.0 mm and 7.5 mm
- Pupillary diameter T3: +115 min (rabbit eye [1]; 5 min before the second paracentesis): 5.5 mm (3×) and 6.0 mm (2×) and 4.5 mm and 5.0 mm and 6.5 mm
- Pupillary diameter Δ(T3 − T1) (rabbit eye [1]; +115 min minus −180 min): −0.5 mm (3×) and −1.5 mm (2×) and 0.5 mm and 0.0 mm and −2.0 mm
- Pupillary diameter T1: −180 min (rabbit eye [1]; basal): 6.0 mm and 7.0 mm (2×) and 5.5 mm (2×) and 6.5 mm (3×)
- Clinical Score −5 min (rabbit eye [2]; 5 min before the first paracentesis, individual eyes, listed as Dex): 0 (6×) and 1 (2×)
- Clinical Score +115 min (rabbit eye [2]; 5 min before the second paracentesis, individual eyes, listed as Dex): 1 (6×) and 3 (2×)
- Clinical score as percentage of eyes, Score (%) 1 (rabbit eye [2]; +115 min, 8 eyes): 75%
- Clinical score as percentage of eyes, Score (%) 3 (rabbit eye [2]; +115 min, 8 eyes): 25%
- Clinical Score −180 min (rabbit eye [2]; basal, individual eyes): 0
- Clinical score as percentage of eyes, Score (%) 0 (rabbit eye [2]; −5 min, 8 eyes): 75%
- Clinical score as percentage of eyes, Score (%) 1 (rabbit eye [2]; −5 min, 8 eyes): 25%
- Clinical score as percentage of eyes, Score (%) 0 (rabbit eye [2]; −180 min (basal), 8 eyes): 100%
- Protein in aqueous humor, Mean [3]: 33.457 mg/mL
- Protein in aqueous humor ([3]; individual eyes, listed as Dex): 31.31 mg/mL and 31.81 mg/mL and 35.95 mg/mL and 37.15 mg/mL and 32.12 mg/mL and 32.40 mg/mL
- PMN in aqueous humor, Mean (leukocytes (PMN)): 30.000 number/μl
- PMN in aqueous humor (leukocytes (PMN); individual eyes, listed as Dex): 20 number/μl (3×) and 50 number/μl and 40 number/μl and 30 number/μl
- Conjunctival congestion Score (rabbit eyes; Day 5): 1
- Conjunctival congestion Score (rabbit eyes; Day 22): 1
- Ophthalmic Observation (Slit-Lamp) (rabbit eyes; Day 5): Conjunctival Congestion
- Ophthalmic Observation (Slit-Lamp) (rabbit eyes; Day 22): Conjunctival Congestion
- Ocular finding associated with unilateral topical instillation (rabbit eyes; four times daily up to 31 days, BOL-303242-X 0.05, 0.25 or 0.5 mg/dose, dexamethasone 0.05 mg/dose): sporadic mild conjunctival congestion
